Laboratory results published in ChEMBL document CHEMBL5465560, “Selectivity Literature for EUbOPEN Chemogenomic Library” (2024).

Legend:
[1] = target: RAF proto-oncogene serine/threonine-protein kinase (Homo sapiens) (UniProt P04049); details: at 10 µM
[2] = target: T1, Serine/threonine-protein kinase TBK1 (Homo sapiens) (UniProt Q9UHD2); assay: Selectivity interaction (Kinase screening (Nanosyn)) EUB0000604a TBK1
T1 sequence (whole entry): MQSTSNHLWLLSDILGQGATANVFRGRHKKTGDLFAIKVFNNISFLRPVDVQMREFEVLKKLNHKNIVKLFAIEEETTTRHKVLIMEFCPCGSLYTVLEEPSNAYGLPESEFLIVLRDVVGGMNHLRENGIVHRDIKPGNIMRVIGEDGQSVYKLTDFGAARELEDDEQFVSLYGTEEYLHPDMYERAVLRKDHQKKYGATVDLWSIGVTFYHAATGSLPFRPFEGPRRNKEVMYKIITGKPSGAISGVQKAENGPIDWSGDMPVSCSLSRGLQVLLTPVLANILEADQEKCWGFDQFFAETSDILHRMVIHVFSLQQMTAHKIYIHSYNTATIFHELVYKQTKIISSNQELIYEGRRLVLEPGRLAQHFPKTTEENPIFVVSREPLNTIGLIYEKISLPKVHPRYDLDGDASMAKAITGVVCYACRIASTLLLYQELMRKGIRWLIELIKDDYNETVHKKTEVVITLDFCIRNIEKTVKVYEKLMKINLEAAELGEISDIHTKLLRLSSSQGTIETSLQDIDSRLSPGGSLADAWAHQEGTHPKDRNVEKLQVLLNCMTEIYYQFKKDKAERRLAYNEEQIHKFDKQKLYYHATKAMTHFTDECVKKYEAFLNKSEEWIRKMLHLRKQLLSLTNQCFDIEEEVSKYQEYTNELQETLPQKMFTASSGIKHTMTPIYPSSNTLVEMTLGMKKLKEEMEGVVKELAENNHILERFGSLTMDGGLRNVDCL

[3] = target: Dual specificity protein kinase CLK1 (Homo sapiens, UniProt P49759); assay: Selectivity interaction (Kinase panel (Z-LYTE Assay)) EUB0001632a CLK1; details: at 10 µM
[4] = target: T2, Serine/threonine-protein kinase BRSK1 (Homo sapiens) (UniProt Q8TDC3); details: at 10 µM
T2 sequence (whole entry): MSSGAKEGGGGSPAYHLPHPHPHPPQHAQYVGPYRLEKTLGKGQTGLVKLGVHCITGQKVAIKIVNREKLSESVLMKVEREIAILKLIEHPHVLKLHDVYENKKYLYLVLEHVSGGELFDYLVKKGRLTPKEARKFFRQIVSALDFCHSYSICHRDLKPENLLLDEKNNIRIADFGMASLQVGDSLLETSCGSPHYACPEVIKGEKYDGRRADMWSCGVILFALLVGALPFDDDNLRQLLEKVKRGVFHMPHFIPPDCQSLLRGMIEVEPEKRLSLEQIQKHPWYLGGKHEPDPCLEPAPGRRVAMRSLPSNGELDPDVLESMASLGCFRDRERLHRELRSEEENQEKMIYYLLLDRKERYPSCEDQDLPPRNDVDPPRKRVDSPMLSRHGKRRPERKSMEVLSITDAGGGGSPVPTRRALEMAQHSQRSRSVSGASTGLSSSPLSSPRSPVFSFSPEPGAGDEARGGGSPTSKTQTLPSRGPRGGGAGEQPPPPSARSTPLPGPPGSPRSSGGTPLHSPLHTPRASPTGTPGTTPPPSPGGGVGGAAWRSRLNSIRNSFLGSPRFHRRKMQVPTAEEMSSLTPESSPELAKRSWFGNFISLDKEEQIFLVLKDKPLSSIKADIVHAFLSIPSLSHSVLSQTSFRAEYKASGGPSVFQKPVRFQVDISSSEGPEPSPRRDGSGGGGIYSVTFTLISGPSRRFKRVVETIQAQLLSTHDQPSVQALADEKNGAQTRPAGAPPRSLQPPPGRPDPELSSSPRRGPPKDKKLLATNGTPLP

Misshapen-like kinase 1 = Misshapen-like kinase 1 (Homo sapiens, UniProt Q8N4C8); assay: Selectivity interaction (KinomeScan (DiscoverX)) EUB0000229b MINK1; details: at 10 µM
[5] = target: Glycogen synthase kinase-3 alpha (Homo sapiens, UniProt P49840); assay: Selectivity interaction (KinomeScan (DiscoverX)) EUB0000655a GSK3A; details: at 10 µM
[6] = target: T3, Serine/threonine-protein kinase Nek1 (Homo sapiens) (UniProt Q96PY6); assay: Selectivity interaction (Kinase panel (DSF assay)) EUB0001558a NEK1
T3 sequence (whole entry): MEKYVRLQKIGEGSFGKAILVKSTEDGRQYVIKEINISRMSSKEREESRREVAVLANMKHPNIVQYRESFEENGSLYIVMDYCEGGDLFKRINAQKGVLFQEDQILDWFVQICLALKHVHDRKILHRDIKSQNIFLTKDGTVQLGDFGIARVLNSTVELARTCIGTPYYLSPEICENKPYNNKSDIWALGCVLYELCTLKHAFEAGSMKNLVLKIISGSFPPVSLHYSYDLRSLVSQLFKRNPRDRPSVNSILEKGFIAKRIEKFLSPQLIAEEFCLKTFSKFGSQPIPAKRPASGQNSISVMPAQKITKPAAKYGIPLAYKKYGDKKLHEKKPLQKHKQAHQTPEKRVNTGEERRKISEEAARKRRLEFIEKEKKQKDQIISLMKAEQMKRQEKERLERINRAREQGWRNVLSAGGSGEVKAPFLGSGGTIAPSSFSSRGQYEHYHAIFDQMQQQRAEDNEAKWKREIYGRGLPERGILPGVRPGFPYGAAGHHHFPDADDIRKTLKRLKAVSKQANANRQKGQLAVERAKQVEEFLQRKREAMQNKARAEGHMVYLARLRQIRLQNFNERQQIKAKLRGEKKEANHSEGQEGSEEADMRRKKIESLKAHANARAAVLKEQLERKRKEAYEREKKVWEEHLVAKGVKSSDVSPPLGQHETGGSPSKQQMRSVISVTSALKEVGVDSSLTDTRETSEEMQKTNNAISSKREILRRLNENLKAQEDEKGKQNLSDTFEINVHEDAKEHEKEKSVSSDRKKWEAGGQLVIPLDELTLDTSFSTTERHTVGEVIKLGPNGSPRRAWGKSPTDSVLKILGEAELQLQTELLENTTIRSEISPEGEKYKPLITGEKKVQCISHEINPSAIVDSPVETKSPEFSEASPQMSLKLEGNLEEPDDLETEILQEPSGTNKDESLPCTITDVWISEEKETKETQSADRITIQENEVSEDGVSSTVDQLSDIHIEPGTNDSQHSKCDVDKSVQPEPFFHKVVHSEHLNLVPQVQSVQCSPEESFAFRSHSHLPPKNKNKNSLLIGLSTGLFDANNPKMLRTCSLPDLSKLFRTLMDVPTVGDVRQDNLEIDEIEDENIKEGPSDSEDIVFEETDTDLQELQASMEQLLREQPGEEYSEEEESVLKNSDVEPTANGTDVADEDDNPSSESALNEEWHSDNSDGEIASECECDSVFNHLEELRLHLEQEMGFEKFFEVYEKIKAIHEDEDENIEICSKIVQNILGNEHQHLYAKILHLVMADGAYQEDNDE

Glycogen synthase kinase-3 alpha, sequence (P49840 2-483 limits assumed): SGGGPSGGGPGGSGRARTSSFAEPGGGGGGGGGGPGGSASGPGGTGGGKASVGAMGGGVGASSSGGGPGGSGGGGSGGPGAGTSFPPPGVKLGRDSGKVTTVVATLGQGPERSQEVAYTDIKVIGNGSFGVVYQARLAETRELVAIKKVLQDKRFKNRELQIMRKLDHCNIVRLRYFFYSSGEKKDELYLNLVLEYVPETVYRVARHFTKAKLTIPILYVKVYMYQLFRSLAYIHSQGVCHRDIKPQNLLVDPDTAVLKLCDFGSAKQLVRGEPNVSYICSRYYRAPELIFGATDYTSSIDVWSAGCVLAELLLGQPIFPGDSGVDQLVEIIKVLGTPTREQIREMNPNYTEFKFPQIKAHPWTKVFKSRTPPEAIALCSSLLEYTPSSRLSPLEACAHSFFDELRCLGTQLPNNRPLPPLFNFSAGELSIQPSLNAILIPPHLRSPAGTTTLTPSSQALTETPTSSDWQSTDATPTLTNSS
RAF proto-oncogene serine/threonine-protein kinase (Homo sapiens), sequence (P04049 whole entry): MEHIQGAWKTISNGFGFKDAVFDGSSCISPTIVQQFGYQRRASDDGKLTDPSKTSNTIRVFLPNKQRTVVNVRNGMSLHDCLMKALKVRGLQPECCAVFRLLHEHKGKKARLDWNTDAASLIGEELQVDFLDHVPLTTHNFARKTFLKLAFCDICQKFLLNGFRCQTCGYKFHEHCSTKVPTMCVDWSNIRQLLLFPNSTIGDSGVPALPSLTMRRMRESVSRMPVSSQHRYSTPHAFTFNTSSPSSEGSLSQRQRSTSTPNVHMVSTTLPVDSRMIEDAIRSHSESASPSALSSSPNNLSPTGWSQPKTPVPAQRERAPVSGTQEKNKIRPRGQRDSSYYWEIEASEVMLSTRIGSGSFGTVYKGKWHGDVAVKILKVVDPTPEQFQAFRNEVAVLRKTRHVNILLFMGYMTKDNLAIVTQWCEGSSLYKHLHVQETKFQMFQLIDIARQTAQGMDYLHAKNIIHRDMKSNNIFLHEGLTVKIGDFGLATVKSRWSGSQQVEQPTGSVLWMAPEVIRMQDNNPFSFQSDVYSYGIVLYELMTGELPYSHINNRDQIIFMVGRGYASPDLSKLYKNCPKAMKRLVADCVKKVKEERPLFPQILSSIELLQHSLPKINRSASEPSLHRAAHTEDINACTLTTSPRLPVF
Misshapen-like kinase 1, sequence (Q8N4C8 whole entry, looked up): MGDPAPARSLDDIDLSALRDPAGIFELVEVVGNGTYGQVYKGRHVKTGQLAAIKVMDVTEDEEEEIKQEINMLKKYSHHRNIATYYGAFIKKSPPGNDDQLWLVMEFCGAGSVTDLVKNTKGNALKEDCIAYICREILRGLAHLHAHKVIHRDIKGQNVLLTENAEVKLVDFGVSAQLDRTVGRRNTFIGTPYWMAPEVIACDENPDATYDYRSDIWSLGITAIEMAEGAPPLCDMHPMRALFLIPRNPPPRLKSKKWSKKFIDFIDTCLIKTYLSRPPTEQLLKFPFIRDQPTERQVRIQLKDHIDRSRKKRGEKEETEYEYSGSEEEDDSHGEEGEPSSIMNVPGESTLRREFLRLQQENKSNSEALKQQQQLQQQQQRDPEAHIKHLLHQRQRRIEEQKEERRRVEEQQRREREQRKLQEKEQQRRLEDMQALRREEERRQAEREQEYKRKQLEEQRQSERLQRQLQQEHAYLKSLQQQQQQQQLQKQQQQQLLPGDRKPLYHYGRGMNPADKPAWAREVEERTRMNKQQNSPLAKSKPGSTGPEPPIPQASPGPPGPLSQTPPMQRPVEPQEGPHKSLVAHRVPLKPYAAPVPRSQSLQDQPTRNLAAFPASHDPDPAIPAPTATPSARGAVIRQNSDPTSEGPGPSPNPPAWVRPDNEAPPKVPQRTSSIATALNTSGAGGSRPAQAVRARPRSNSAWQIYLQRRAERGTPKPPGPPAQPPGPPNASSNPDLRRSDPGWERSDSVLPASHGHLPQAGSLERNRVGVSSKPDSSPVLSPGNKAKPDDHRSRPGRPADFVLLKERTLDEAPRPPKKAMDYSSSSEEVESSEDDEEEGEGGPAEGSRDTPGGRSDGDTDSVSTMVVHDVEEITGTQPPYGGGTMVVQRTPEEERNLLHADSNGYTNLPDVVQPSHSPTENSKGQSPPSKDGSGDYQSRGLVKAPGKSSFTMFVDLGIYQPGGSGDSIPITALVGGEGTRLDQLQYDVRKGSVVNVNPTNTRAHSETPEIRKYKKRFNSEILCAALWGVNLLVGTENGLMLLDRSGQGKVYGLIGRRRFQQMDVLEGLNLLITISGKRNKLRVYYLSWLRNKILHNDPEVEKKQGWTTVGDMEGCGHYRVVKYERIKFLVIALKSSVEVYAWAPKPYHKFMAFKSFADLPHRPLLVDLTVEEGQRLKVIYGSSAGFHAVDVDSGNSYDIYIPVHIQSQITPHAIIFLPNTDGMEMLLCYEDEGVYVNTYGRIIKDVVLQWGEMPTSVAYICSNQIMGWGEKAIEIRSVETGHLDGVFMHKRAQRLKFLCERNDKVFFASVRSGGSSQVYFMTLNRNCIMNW
Dual specificity protein kinase CLK1, sequence (P49759 whole entry, looked up): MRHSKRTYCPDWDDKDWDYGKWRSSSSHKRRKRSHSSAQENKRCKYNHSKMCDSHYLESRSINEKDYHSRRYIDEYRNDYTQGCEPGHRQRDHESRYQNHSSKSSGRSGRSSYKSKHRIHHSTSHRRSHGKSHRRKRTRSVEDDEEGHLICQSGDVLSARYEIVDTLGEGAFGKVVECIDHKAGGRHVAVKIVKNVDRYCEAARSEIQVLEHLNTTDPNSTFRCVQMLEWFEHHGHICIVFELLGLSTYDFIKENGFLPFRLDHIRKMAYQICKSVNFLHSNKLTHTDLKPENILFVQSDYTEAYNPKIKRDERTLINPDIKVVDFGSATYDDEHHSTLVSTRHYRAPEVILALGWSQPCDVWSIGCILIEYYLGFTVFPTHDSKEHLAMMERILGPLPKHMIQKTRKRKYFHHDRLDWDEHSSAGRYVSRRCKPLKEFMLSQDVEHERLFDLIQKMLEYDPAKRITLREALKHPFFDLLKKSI

Q: How did the % of control [1] turn out when `Cc1cc([C@@H](C)Nc2ccccc2C(=O)O)c2nc(N3CCOCC3)cc(=O)n2c1` [AZD-6482] was run?
A: 100%

Q: Which % of inhibition [2] does the source give for `Cc1cnc(Nc2ccc(F)cc2Cl)nc1-c1c[nH]c(C(=O)N[C@H](CO)c2cccc(Cl)c2)c1` here?
A: 3%

Q: Which % of control [3] does the source give for `Cn1cc(-n2cnc3c(NCc4nc5cc(Cl)c(Cl)cc5[nH]4)nc(N4CCOCC4)nc32)cn1` here?
A: 8.07%

Q: For `COCC(=O)NC/C=C/c1ccc2ncnc(Nc3ccc(Oc4ccc(C)nc4)c(C)c3)c2c1` [CP-724714], which % of control [4] is on record?
A: 100%

Q: `COc1cc(N(C)c2ccnc3ccc(C(F)(F)F)cc23)cc(OC)c1OC` was tested. Which % binding (Misshapen-like kinase 1) did it give?
A: 68%

Q: For `CN(C)CCOc1ccc(-c2nc(-c3ccncc3)c(-c3ccc4c(c3)CC/C4=N\O)[nH]2)cc1`, which % of control [5] is on record?
A: 100%

Q: Which dTM [6] does the source give for `CC(C)(O)[C@H](F)CN1Cc2cc(NC(=O)c3cnn4cccnc34)c(N3CCOCC3)cc2C1=O` here?
A: -1.2 K
